Results: US10519152B2, “Compounds and their use in treating cancer” (AstraZeneca AB, priority 2017, dated 2019)
Where a name gives a salt, the structure may show the parent alone.

Biological target: T1, Estrogen Receptor (ERα) in MCF-7 human ductal carcinoma breast cell line (Homo sapiens, UniProt P03372)
T1 construct: endogenous in cells; host or cells: MCF-7
T1 sequence (P03372 1-595): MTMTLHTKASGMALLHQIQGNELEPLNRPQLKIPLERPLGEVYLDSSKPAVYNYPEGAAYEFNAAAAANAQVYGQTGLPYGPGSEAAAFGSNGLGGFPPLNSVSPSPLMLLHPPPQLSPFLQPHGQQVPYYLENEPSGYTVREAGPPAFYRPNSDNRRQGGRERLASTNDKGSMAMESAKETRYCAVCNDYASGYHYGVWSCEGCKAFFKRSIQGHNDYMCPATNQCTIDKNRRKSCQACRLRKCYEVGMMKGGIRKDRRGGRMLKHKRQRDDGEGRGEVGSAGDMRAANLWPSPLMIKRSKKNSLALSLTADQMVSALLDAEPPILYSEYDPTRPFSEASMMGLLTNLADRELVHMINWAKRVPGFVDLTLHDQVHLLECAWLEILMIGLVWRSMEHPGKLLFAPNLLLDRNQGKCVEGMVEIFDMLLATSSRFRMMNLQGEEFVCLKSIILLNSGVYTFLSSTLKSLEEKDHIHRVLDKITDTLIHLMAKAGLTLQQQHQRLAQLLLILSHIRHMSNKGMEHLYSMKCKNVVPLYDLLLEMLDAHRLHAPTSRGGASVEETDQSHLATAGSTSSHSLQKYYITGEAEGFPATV
Assay: MCF-7 ER degradation assay (cell based immuno-fluorescence)
Conditions: MCF-7 cells; for ER degradation ≥ 90% at 0.3 μM: ER degradation by fulvestrant at 0.3 μM is defined as 100%; for DC50: 18-22 hours incubation, 50% reduction of ERα expression, single experiment or average of two or more, read-out: MCF-7 ER degradation IC50
Outline: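 MCF-7 human ductal carcinoma breast cells were seeded at 3.75×10^4 cells per mL (40 μL per well) in 384 well plates with phenol red free DMEM containing 2 mM L-Glutamine and 5% (v/v) Charcoal/Dextran treated foetal calf serum. After overnight culture, compounds were acoustically dispensed, incubated 18-22 hours, then cells were formaldehyde-fixed and immunostained for ERα.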

Compound	ER degradation ≥ 90% at 0.3 μM	DC50
Cc1ncsc1-c1ccc(CNC(=O)[C@@H]2C[C@@H](O)CN2C(=O)[C@@H](NC(=O)COCCNC(=O)/C=C/c2cc(F)c([C@@H]3c4[nH]c5ccccc5c4C[C@@H](C)N3CC(C)(C)F)c(F)c2)C(C)(C)C)cc1 [Example 62, (2S,4R)-1-((S)-2-(2-(2-((E)-3-(3,5-difluoro-4-((1R,3R)-2-(2-fluoro-2-methylpropyl)-3-methyl-2,3,4,9-tetrahydro-1H-pyrido[3,4-b]indol-1-yl)phenyl)acrylamido)ethoxy)acetamido)-3,3-dimethylbutanoyl)-4-hydroxy-N-(4-(4-methylthiazol-5-yl)benzyl)pyrrolidine-2-carboxamide, Trifluoroacetic Acid]	•	0.6 nM
Cc1ncsc1-c1ccc([C@H](C)NC(=O)[C@@H]2C[C@@H](O)CN2C(=O)[C@@H](NC(=O)COCCOCCOCCOc2cc(F)c([C@@H]3c4[nH]c5ccccc5c4C[C@@H](C)N3CC(C)(C)F)c(F)c2)C(C)(C)C)cc1 [Example 3, (2S,4R)-1-((S)-2-(tert-Butyl)-14-(3,5-difluoro-4-((1R,3R)-2-(2-fluoro-2-methylpropyl)-3-methyl-2,3,4,9-tetrahydro-1H-pyrido[3,4-b]indol-1-yl)phenoxy)-4-oxo-6,9,12-trioxa-3-azatetradecanoyl)-4-hydroxy-N—((S)-1-(4-(4-methylthiazol-5-yl)phenyl)ethyl)pyrrolidine-2-carboxamide]	••	0.3 nM
Cc1ncsc1-c1ccc(CNC(=O)[C@@H]2C[C@@H](O)CN2C(=O)[C@@H](NC(=O)COCCOCCOCCOCCOCC(=O)Nc2ccc([C@@H]3c4[nH]c5ccccc5c4C[C@@H](C)N3CC(C)(C)F)cc2)C(C)(C)C)cc1 [Example 56, N^1-(4-((1R,3R)-2-(2-fluoro-2-methylpropyl)-3-methyl-2,3,4,9-tetrahydro-1H-pyrido[3,4-b]indol-1-yl)phenyl)-N^17—((S)-1-((2S,4R)-4-hydroxy-2-((4-(4-methylthiazol-5-yl)benzyl)carbamoyl)pyrrolidin-1-yl)-3,3-dimethyl-1-oxobutan-2-yl)-3,6,9,12,15-pentaoxaheptadecanediamide, Trifluoroacetic Acid]	••	1.5 nM
Cc1ncsc1-c1ccc(CNC(=O)[C@@H]2C[C@@H](O)CN2C(=O)[C@@H](NC(=O)COCCO[C@H](C)[C@@H](C)OCCOc2cc(F)c([C@@H]3c4[nH]c5ccccc5c4C[C@@H](C)N3CC(C)(C)F)c(F)c2)C(C)(C)C)cc1 [Example 80, (2S,4R)-1-((2S,10R,11R)-2-(tert-butyl)-14-(3,5-difluoro-4-((1R,3R)-2-(2-fluoro-2-methylpropyl)-3-methyl-2,3,4,9-tetrahydro-1H-pyrido[3,4-b]indol-1-yl)phenoxy)-10,11-dimethyl-4-oxo-6,9,12-trioxa-3-azatetradecanoyl)-4-hydroxy-N-(4-(4-methylthiazol-5-yl)benzyl)pyrrolidine-2-carboxamide]	••	0.7 nM
Cc1ncsc1-c1ccc(CNC(=O)[C@@H]2C[C@@H](O)CN2C(=O)[C@@H](NC(=O)COCCOCCOCCOc2cc(F)c([C@@H]3c4[nH]c5ccccc5c4C[C@@H](C)N3CC(F)(F)CO)c(F)c2)C(C)(C)C)cc1 [Example 71, (2S,4R)-1-((S)-2-(tert-Butyl)-14-(4-((1R,3R)-2-(2,2-difluoro-3-hydroxypropyl)-3-methyl-2,3,4,9-tetrahydro-1H-pyrido[3,4-b]indol-1-yl)-3,5-difluorophenoxy)-4-oxo-6,9,12-trioxa-3-azatetradecanoyl)-4-hydroxy-N-(4-(4-methylthiazol-5-yl)benzyl)pyrrolidine-2-carboxamide]	•	0.5 nM
Cc1ncsc1-c1ccc(CNC(=O)[C@@H]2C[C@@H](O)CN2C(=O)[C@@H](NC(=O)COCCCCOCCCOc2cc(F)c([C@@H]3c4[nH]c5ccccc5c4C[C@@H](C)N3CC(C)(C)F)c(F)c2)C(C)(C)C)cc1 [Example 93]	•	0.9 nM
Cc1ncsc1-c1ccc(CNC(=O)[C@@H]2C[C@@H](O)CN2C(=O)[C@@H](NC(=O)COCCCCCOc2cc(F)c([C@@H]3c4[nH]c5ccccc5c4C[C@@H](C)N3CC(F)(F)F)c(F)c2)C(C)(C)C)cc1 [Example 96]	•	1.3 nM
Cc1ncsc1-c1ccc(CNC(=O)[C@@H]2C[C@@H](O)CN2C(=O)[C@@H](NC(=O)COCCOCCOCCNC(=O)/C=C/c2cc(F)c([C@@H]3c4[nH]c5ccccc5c4C[C@@H](C)N3CC(C)(C)F)c(F)c2)C(C)(C)C)cc1 [Example 63, (2S,4R)-1-((S,E)-2-(tert-butyl)-18-(3,5-difluoro-4-((1R,3R)-2-(2-fluoro-2-methylpropyl)-3-methyl-2,3,4,9-tetrahydro-1H-pyrido[3,4-b]indol-1-yl)phenyl)-4,16-dioxo-6,9,12-trioxa-3,15-diazaoctadec-17-enoyl)-4-hydroxy-N-(4-(4-methylthiazol-5-yl)benzyl)pyrrolidine-2-carboxamide, Trifluoroacetic Acid]	••	0.6 nM
Cc1ncsc1-c1ccc(CNC(=O)[C@@H]2C[C@@H](O)CN2C(=O)[C@@H](NC(=O)COCCOCCOCCOCC(=O)Nc2ccc([C@@H]3c4[nH]c5ccccc5c4C[C@@H](C)N3CC(C)(C)F)cc2)C(C)(C)C)cc1 [Example 55, N^1-(4-((1R,3R)-2-(2-fluoro-2-methylpropyl)-3-methyl-2,3,4,9-tetrahydro-1H-pyrido[3,4-b]indol-1-yl)phenyl)-N^14—((S)-1-((2S,4R)-4-hydroxy-2-((4-(4-methylthiazol-5-yl)benzyl)carbamoyl)pyrrolidin-1-yl)-3,3-dimethyl-1-oxobutan-2-yl)-3,6,9,12-tetraoxatetradecanediamide, Trifluoroacetic Acid]	•	1.2 nM
Cc1ncsc1-c1ccc(CNC(=O)[C@@H]2C[C@@H](O)CN2C(=O)[C@@H](NC(=O)COCc2ccc(COc3cc(F)c([C@@H]4c5[nH]c6ccccc6c5C[C@@H](C)N4CC(C)(C)F)c(F)c3)cn2)C(C)(C)C)cc1 [Example 86, (2S,4R)-1-((S)-2-(2-((5-((3,5-Difluoro-4-((1R,3R)-2-(2-fluoro-2-methylpropyl)-3-methyl-2,3,4,9-tetrahydro-1H-pyrido[3,4-b]indol-1-yl)phenoxy)methyl)pyridin-2-yl)methoxy)acetamido)-3,3-dimethylbutanoyl)-4-hydroxy-N-(4-(4-methylthiazol-5-yl)benzyl)pyrrolidine-2-carboxamide]	••	0.6 nM
Cc1ncsc1-c1ccc(CNC(=O)[C@@H]2C[C@@H](O)CN2C(=O)[C@@H](NC(=O)COCc2cccc(CCCOc3cc(F)c([C@@H]4c5[nH]c6ccccc6c5C[C@@H](C)N4CC(C)(C)F)c(F)c3)c2)C(C)(C)C)cc1 [Example 74, (2S,4R)-1-((S)-2-(2-((3-(3-(3,5-Difluoro-4-((1R,3R)-2-(2-fluoro-2-methylpropyl)-3-methyl-2,3,4,9-tetrahydro-1H-pyrido[3,4-b]indol-1-yl)phenoxy)propyl)benzyl)oxy)acetamido)-3,3-dimethylbutanoyl)-4-hydroxy-N-(4-(4-methylthiazol-5-yl)benzyl)pyrrolidine-2-carboxamide]	••	14.3 nM
CC[C@H](C)[C@H](N)C(=O)O[C@@H]1C[C@@H](C(=O)NCc2ccc(-c3scnc3C)cc2)N(C(=O)[C@@H](NC(=O)COCCOCCOCCOc2cc(F)c([C@@H]3c4[nH]c5ccccc5c4C[C@@H](C)N3CC(C)(C)F)c(F)c2)C(C)(C)C)C1 [Example 99, (3R,5S)-1-((S)-2-(2-(2-(2-(2-(3,5-Difluoro-4-((1R,3R)-2-(2-fluoro-2-methylpropyl)-3-methyl-2,3,4,9-tetrahydro-1H-pyrido[3,4-b]indol-1-yl)phenoxy)ethoxy)ethoxy)ethoxy)acetamido)-3,3-dimethylbutanoyl)-5-((4-(4-methylthiazol-5-yl)benzyl)carbamoyl)pyrrolidin-3-yl L-isoleucinate Formate]	•	1.6 nM
Cc1ncsc1-c1ccc(CNC(=O)[C@@H]2C[C@@H](O)CN2C(=O)[C@@H](NC(=O)COCCOCCNC(=O)/C=C/c2cc(F)c([C@@H]3c4[nH]c5ccccc5c4C[C@@H](C)N3CC(C)(C)F)c(F)c2)C(C)(C)C)cc1 [Example 58, (2S,4R)-1-((S,E)-2-(tert-butyl)-15-(3,5-difluoro-4-((1R,3R)-2-(2-fluoro-2-methylpropyl)-3-methyl-2,3,4,9-tetrahydro-1H-pyrido[3,4-b]indol-1-yl)phenyl)-4,13-dioxo-6,9-dioxa-3,124-diazapentadec-4-enoyl)-4-hydroxy-N-(4-(4-methylthiazol-5-yl)benzyl)pyrrolidine-2-carboxamide, Trifluoroacetic Acid]	•	0.4 nM
